Source: PubChem BioAssay (NCI)
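Where inhibition never reached the appropriate level, the endpoint shown equals the highest concentration tested. Otherwise, values were interpolated linearly from a five-concentration, 48-hour dose response in 96-well plates. Definition used: TGI = concentration required for complete inhibition of growth.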

Tests used:
Assay in all cases: DTP human tumour cell line panel, 48 h
SF-539 CNS = tested on: SF-539 CNS
RPMI-8226 leukemia = tested on: RPMI-8226 leukemia
OVCAR-8 ovarian = tested on: OVCAR-8 ovarian
CAKI-1 renal = tested on: CAKI-1 renal
OVCAR-5 ovarian = tested on: OVCAR-5 ovarian
OVCAR-3 ovarian = tested on: OVCAR-3 ovarian
SK-OV-3 ovarian = tested on: SK-OV-3 ovarian
ACHN renal = tested on: ACHN renal
SNB-75 CNS = tested on: SNB-75 CNS
TK-10 renal = tested on: TK-10 renal
SR leukemia = tested on: SR leukemia
HL-60(TB) leukemia = tested on: HL-60(TB) leukemia
SN12C renal = tested on: SN12C renal
RXF-631 renal = tested on: RXF-631 renal
SK-MEL-28 melanoma = tested on: SK-MEL-28 melanoma
KM20L2 colon = tested on: KM20L2 colon
A498 renal = tested on: A498 renal
UO-31 renal = tested on: UO-31 renal
786-0 renal = tested on: 786-0 renal
MOLT-4 leukemia = tested on: MOLT-4 leukemia
HCC-2998 colon = tested on: HCC-2998 colon
UACC-257 melanoma = tested on: UACC-257 melanoma
IGROV1 ovarian = tested on: IGROV1 ovarian
NCI-H460 lung = tested on: NCI-H460 lung
U251 CNS = tested on: U251 CNS
SK-MEL-2 melanoma = tested on: SK-MEL-2 melanoma
NCI-H522 lung = tested on: NCI-H522 lung
M14 melanoma = tested on: M14 melanoma
UACC-62 melanoma = tested on: UACC-62 melanoma
XF 498 CNS = tested on: XF 498 CNS
K-562 leukemia = tested on: K-562 leukemia
SNB-19 CNS = tested on: SNB-19 CNS
NCI-H226 lung = tested on: NCI-H226 lung
SNB-78 CNS = tested on: SNB-78 CNS
HOP-62 NSCLC = tested on: HOP-62 NSCLC
EKVX NSCLC = tested on: EKVX NSCLC
OVCAR-4 ovarian = tested on: OVCAR-4 ovarian
DLD-1 colon = tested on: DLD-1 colon
CCRF-CEM leukemia = tested on: CCRF-CEM leukemia
COLO 205 colon = tested on: COLO 205 colon
KM12 colon = tested on: KM12 colon
HOP-18 NSCLC = tested on: HOP-18 NSCLC
DMS 114 small cell lung = tested on: DMS 114 small cell lung
SF-268 CNS = tested on: SF-268 CNS
HOP-92 NSCLC = tested on: HOP-92 NSCLC
NCI-H23 lung = tested on: NCI-H23 lung
MALME-3M melanoma = tested on: MALME-3M melanoma
HCT-15 colon = tested on: HCT-15 colon
SK-MEL-5 melanoma = tested on: SK-MEL-5 melanoma
DMS 273 small cell lung = tested on: DMS 273 small cell lung
M19-MEL melanoma = tested on: M19-MEL melanoma
LOX IMVI melanoma = tested on: LOX IMVI melanoma
HT29 colon = tested on: HT29 colon
LXFL 529 NSCLC = tested on: LXFL 529 NSCLC
SF-295 CNS = tested on: SF-295 CNS

NC(N)=N/N=C(/CC1OC(=O)c2ccccc21)c1ccc2ccccc2c1 (stereo not given)
TGI (SF-539 CNS): 31.9 µM
TGI (RPMI-8226 leukemia): 48 µM
TGI (OVCAR-8 ovarian): 31.5 µM
TGI (CAKI-1 renal): > 100 µM
TGI (OVCAR-5 ovarian): > 100 µM
TGI (OVCAR-3 ovarian): 38.3 µM
TGI (SK-OV-3 ovarian): 74 µM
TGI (ACHN renal): 33.7 µM
TGI (SNB-75 CNS): 47.7 µM
TGI (TK-10 renal): 35 µM
TGI (SR leukemia): 33.6 µM
TGI (HL-60(TB) leukemia): 41.9 µM
TGI (SN12C renal): 42.2 µM
TGI (RXF-631 renal): 65.2 µM
TGI (SK-MEL-28 melanoma): 35.2 µM
TGI (KM20L2 colon): 57.2 µM
TGI (A498 renal): 33.4 µM
TGI (UO-31 renal): 32.7 µM
TGI (786-0 renal): 32.4 µM
TGI (MOLT-4 leukemia): 79.4 µM
TGI (HCC-2998 colon): 31.1 µM
TGI (UACC-257 melanoma): 28.7 µM
TGI (IGROV1 ovarian): 47.2 µM
TGI (NCI-H460 lung): 32.5 µM
TGI (U251 CNS): 30.1 µM
TGI (SK-MEL-2 melanoma): > 100 µM
TGI (NCI-H522 lung): 28.8 µM
TGI (M14 melanoma): 30.3 µM
TGI (UACC-62 melanoma): 34.7 µM
TGI (XF 498 CNS): 20.9 µM
TGI (K-562 leukemia): 67 µM
TGI (SNB-19 CNS): > 100 µM
TGI (NCI-H226 lung): 32.4 µM
TGI (SNB-78 CNS): > 100 µM
TGI (HOP-62 NSCLC): 42.1 µM
TGI (EKVX NSCLC): 52.9 µM
TGI (OVCAR-4 ovarian): 37.4 µM
TGI (DLD-1 colon): 28 µM
TGI (CCRF-CEM leukemia): 43.8 µM
TGI (COLO 205 colon): 39 µM
TGI (KM12 colon): 26.6 µM
TGI (HOP-18 NSCLC): 43.3 µM
TGI (DMS 114 small cell lung): 25.6 µM
TGI (SF-268 CNS): 31.8 µM
TGI (HOP-92 NSCLC): 55 µM
TGI (NCI-H23 lung): 88.6 µM
TGI (MALME-3M melanoma): 30 µM
TGI (HCT-15 colon): 31.7 µM
TGI (SK-MEL-5 melanoma): 35.8 µM
TGI (DMS 273 small cell lung): 44.9 µM
TGI (M19-MEL melanoma): 31.6 µM
TGI (LOX IMVI melanoma): > 100 µM
TGI (HT29 colon): 45.7 µM
TGI (LXFL 529 NSCLC): 27.7 µM
TGI (SF-295 CNS): > 100 µM
